Assay type in all cases: cell-based
One assay has as its target T1, hGIPR (Homo sapiens, UniProt P48546).
T1 construct: expressed in transfected cells
T1 sequence (P48546 22-466): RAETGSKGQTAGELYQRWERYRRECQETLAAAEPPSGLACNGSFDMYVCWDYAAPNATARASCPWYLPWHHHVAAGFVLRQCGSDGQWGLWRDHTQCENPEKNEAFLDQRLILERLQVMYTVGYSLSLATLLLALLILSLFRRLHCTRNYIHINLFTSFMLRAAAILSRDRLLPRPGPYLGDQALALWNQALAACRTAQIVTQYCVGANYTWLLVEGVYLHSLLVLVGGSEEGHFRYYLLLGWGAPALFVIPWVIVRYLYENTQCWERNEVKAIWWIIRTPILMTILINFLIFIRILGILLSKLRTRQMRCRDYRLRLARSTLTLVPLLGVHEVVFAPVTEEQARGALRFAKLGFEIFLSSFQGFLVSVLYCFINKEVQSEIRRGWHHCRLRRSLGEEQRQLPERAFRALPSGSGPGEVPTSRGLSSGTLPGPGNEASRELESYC
Kind of assay: Functional cAMP formation (HTRF) in HEK-293 clonal cells expressing hGIPR, 0.1% bovine casein, without or with 1.0% human serum albumin. The settings on record: for Emax: percent of maximal response to GIP(1-42)NH2. Summed up:
(§1)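 Readings of the HTRF 665/620 nm ratio, which falls as cAMP rises, were converted to nM cAMP using a standard curve after 30 min peptide exposure at 37° C.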

The target of another assay is T2, hGCGR (Homo sapiens, UniProt P47871).
T2 construct: expressed in transfected cells
Kind of assay: Functional cAMP formation (HTRF) in HEK-293 clonal cells expressing hGCGR, 0.1% bovine casein, without or with 1.0% human serum albumin. The gist of the method:
as §1

The target of a further assay is hGLP-1R (Homo sapiens, UniProt P43220). Kind of assay: Functional cAMP formation (HTRF) in HEK-293 clonal cells expressing hGLP-1R, 0.1% bovine casein, without or with 1.0% human serum albumin. Details: expressed in transfected cells. The gist of the method: as §1
(In general: cAMP levels reflect the balance of adenylyl cyclase and phosphodiesterase activity.)

Each structure is given as a SMILES string. Like-named read-outs stand apart in the source and are kept apart here. Where a SMILES comes first, the peptide text is derived from it. Side-chain parts run from the residue outwards. [ ]: non-standard residue; d: D form. The star is where a group is joined. αMePhe(2-F) = C[C@](N)(Cc1ccccc1F)C(=O)O; C14 diacid = O=C(O)CCCCCCCCCCCCC(=O)*; αMeY = C[C@](N)(Cc1ccc(O)cc1)C(=O)O; αMeL = CC(C)C[C@](C)(N)C(=O)O; Orn = NCCC[C@H](N)C(=O)O; AEEA = NCCOCCOCC(=O)O; Aib = CC(C)(N)C(=O)O

T2 sequence (P47871 26-477): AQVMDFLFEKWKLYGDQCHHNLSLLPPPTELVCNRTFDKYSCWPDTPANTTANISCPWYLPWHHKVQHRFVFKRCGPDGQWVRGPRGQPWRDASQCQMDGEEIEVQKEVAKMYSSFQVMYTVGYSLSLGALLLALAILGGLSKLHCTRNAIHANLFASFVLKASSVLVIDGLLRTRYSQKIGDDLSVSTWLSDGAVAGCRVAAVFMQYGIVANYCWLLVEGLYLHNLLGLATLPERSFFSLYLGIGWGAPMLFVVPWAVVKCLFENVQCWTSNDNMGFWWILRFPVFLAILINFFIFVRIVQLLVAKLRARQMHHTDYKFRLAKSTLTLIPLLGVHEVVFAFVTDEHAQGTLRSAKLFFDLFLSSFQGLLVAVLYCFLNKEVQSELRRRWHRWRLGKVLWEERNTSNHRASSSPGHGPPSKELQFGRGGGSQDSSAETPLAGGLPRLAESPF
hGLP-1R, sequence (P43220 24-463): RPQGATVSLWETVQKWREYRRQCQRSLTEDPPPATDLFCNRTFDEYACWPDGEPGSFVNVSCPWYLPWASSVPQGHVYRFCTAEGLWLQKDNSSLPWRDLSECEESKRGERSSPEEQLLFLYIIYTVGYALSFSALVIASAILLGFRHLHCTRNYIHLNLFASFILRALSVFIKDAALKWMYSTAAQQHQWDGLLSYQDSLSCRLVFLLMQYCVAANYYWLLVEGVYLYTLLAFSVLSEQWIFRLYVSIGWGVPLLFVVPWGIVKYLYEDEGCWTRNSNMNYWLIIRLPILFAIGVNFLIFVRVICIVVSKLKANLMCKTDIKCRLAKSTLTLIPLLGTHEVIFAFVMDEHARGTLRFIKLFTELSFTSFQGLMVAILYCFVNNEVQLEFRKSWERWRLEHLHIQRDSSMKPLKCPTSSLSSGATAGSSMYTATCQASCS

As usually defined, the Emax is the greatest response seen or fitted, relative to the assay's reference. The EC50 is the midpoint of the concentration-response curve. Consider `CC[C@H](C)[C@H](NC(=O)[C@H](CC(C)C)NC(=O)[C@](C)(Cc1ccc(O)cc1)NC(=O)[C@@H](CCC(=O)O)NC(=O)[C@@H](NC(=O)[C@H](Cc1ccccc1)NC(=O)[C@H](CCC(=O)O)NC(=O)C(C)(C)NC(=O)[C@H](CCC(N)=O)NC(=O)[C@H](C)NC(=O)[C@H](CCCCNC(=O)COCCOCCNC(=O)COCCOCCNC(=O)CCCCCCCCCCCCC(=O)O)NC(=O)[C@H](CCCN)NC(=O)[C@H](CC(=O)O)NC(=O)[C@H](CC(C)C)NC(=O)[C@](C)(CC(C)C)NC(=O)[C@@H](NC(=O)[C@H](CO)NC(=O)[C@H](Cc1ccc(OC)cc1)NC(=O)[C@H](CC(=O)O)NC(=O)[C@H](CO)NC(=O)[C@@H](NC(=O)[C@](C)(Cc1ccccc1F)NC(=O)[C@@H](NC(=O)CNC(=O)[C@H](CCC(=O)O)NC(=O)C(C)(C)NC(=O)[C@@H](N)Cc1ccc(O)cc1)[C@@H](C)O)[C@@H](C)O)[C@@H](C)CC)[C@@H](C)CC)C(=O)N[C@@H](CCC(=O)O)C(=O)NCC(=O)NCC(=O)N1CCC[C@H]1C(=O)N[C@@H](CO)C(=O)N[C@@H](CO)C(=O)NCC(=O)N[C@@H](C)C(=O)N1CCC[C@H]1C(=O)N1CCC[C@H]1C(=O)N1CCC[C@H]1C(=O)N[C@@H](CO)C(=O)N[C@@H](CCCCNC(=O)COCCOCCNC(=O)COCCOCCNC(=O)CCCCCCCCCCCCC(=O)O)C(N)=O` [Example 267] (H-Y[Aib]EGT[αMePhe(2-F)]TSDY(Me)SI[αMeL]LD[Orn]K([AEEA-AEEA-C14 diacid])AQ[Aib]EFI[dE][αMeY]LIEGGPSSGAPPPSK([AEEA-AEEA-C14 diacid])-NH2), for which the maximal response (Emax) on hGIPR (HEK293, 0.1% bovine casein and 1.0% human serum albumin, 37° C., read-out: hGIPR Emax, % ± SEM) is 88.1%. The EC50 is 0.0162 nM on hGIPR (cAMP, 37° C., 0.1% bovine casein (no human serum albumin), geometric mean, read-out: hGIPR EC50, nM (SEM, n)); > 9950 nM on hGCGR (0.1% bovine casein and 1.0% human serum albumin, 37° C., geometric mean, read-out: hGCGR EC50, nM (SEM, n)); > 9950 nM at hGCGR (cAMP, 37° C., 0.1% bovine casein (no human serum albumin), geometric mean, read-out: hGCGR EC50, nM (SEM, n)); 0.271 nM at hGLP-1R (cAMP, 37° C., 0.1% bovine casein (no human serum albumin), geometric mean, read-out: hGLP-1R EC50, nM (SEM, n)).

In the case of `CC[C@H](C)[C@H](NC(=O)[C@H](CC(C)C)NC(=O)[C@](C)(Cc1ccc(O)cc1)NC(=O)[C@@H](CCC(=O)O)NC(=O)[C@@H](NC(=O)[C@H](Cc1ccccc1)NC(=O)[C@H](CCCCNC(=O)COCCOCCNC(=O)COCCOCCNC(=O)CCCCCCCCCOc1ccc(C(=O)O)cc1)NC(=O)C(C)(C)NC(=O)[C@H](CCC(N)=O)NC(=O)[C@H](C)NC(=O)[C@H](CCCCNC(=O)COCCOCCNC(=O)COCCOCCNC(=O)CCCCCCCCCOc1ccc(C(=O)O)cc1)NC(=O)[C@H](CCCN)NC(=O)[C@H](CC(=O)O)NC(=O)[C@H](CC(C)C)NC(=O)[C@](C)(CC(C)C)NC(=O)[C@@H](NC(=O)C(C)(C)NC(=O)[C@@H](NC(=O)[C@H](CC(=O)O)NC(=O)[C@H](CO)NC(=O)[C@@H](NC(=O)[C@](C)(Cc1ccccc1F)NC(=O)[C@@H](NC(=O)CNC(=O)[C@H](CCC(=O)O)NC(=O)C(C)(C)NC(=O)[C@@H](N)Cc1ccc(O)cc1)[C@@H](C)O)[C@@H](C)O)C(C)C)[C@@H](C)CC)[C@@H](C)CC)C(=O)N[C@@H](CCC(=O)O)C(=O)NCC(=O)NCC(=O)N1CCC[C@H]1C(=O)N[C@@H](CO)C(=O)N[C@@H](CO)C(=O)NCC(=O)N[C@@H](C)C(=O)N1CCC[C@H]1C(=O)N1CCC[C@H]1C(=O)N1CCC[C@H]1C(=O)N[C@@H](CO)C(N)=O` [Example 394], the Emax worked out at 84.6% at hGIPR (HEK293, read-out: hGIPR Emax, % ± SEM, cAMP, 37° C., 0.1% bovine casein and 1.0% human serum albumin); 97.7% at hGIPR (HEK293, read-out: hGIPR Emax, % ± SEM, cAMP, 37° C., 0.1% bovine casein, arithmetic mean); 96.8% on hGLP-1R (HEK293, read-out: hGLP-1R Emax, % ± SEM, cAMP, 37° C., 0.1% bovine casein and 1.0% human serum albumin, percent of maximal response to GLP-1(7-36)NH2). Also, the 50% effective concentration (EC50) at hGIPR (hGIPR EC50, nM (SEM, n), cAMP, 37° C., 0.1% bovine casein (no human serum albumin), geometric mean) is 0.0179 nM; on hGIPR (hGIPR EC50, nM (SEM, n), cAMP, 37° C., 0.1% bovine casein and 1.0% human serum albumin, geometric mean (SEM, n)) it was 1.38 nM; at hGCGR (hGCGR EC50, nM (SEM, n), cAMP, 37° C., 0.1% bovine casein (no human serum albumin), geometric mean) it was > 9950 nM; at hGCGR (hGCGR EC50, nM (SEM, n), cAMP, 37° C., 0.1% bovine casein and 1.0% human serum albumin, geometric mean (SEM, n)), > 9950 nM; on hGLP-1R (hGLP-1R EC50, nM (SEM, n), cAMP, 37° C., 0.1% bovine casein (no human serum albumin), geometric mean), 0.223 nM; at hGLP-1R (hGLP-1R EC50, nM (SEM, n), cAMP, 37° C., 0.1% bovine casein and 1.0% human serum albumin, geometric mean (SEM, n)), 5.83 nM.

In the case of `CC[C@H](C)[C@H](NC(=O)[C@H](CC(C)C)NC(=O)[C@](C)(Cc1ccc(O)cc1)NC(=O)[C@H](CCCCNC(=O)COCCOCCNC(=O)COCCOCCNC(=O)CCCCCCCCCCCCC(=O)O)NC(=O)[C@@H](NC(=O)[C@H](Cc1ccccc1)NC(=O)[C@H](CCC(=O)O)NC(=O)C(C)(C)NC(=O)[C@H](CCC(N)=O)NC(=O)[C@H](C)NC(=O)[C@H](CCCCNC(=O)COCCOCCNC(=O)COCCOCCNC(=O)CCCCCCCCCCCCC(=O)O)NC(=O)[C@H](CCCN)NC(=O)[C@H](CC(=O)O)NC(=O)[C@H](CC(C)C)NC(=O)[C@](C)(CC(C)C)NC(=O)[C@@H](NC(=O)[C@H](CO)NC(=O)[C@H](Cc1ccncc1)NC(=O)[C@H](CC(=O)O)NC(=O)[C@H](CO)NC(=O)[C@@H](NC(=O)[C@](C)(Cc1ccccc1F)NC(=O)[C@@H](NC(=O)CNC(=O)[C@H](CCC(=O)O)NC(=O)C(C)(C)NC(=O)[C@@H](N)Cc1ccc(O)cc1)[C@@H](C)O)[C@@H](C)O)[C@@H](C)CC)[C@@H](C)CC)C(=O)N[C@@H](CCC(=O)O)C(=O)NCC(=O)NCC(=O)N1CCC[C@H]1C(=O)N[C@@H](CO)C(=O)N[C@@H](CO)C(=O)NCC(=O)N[C@@H](C)C(=O)N1CCC[C@H]1C(=O)N1CCC[C@H]1C(=O)N1CCC[C@H]1C(=O)N[C@@H](CO)C(N)=O` [Example 81], the maximal response (Emax) on hGIPR (HEK293, read-out: hGIPR Emax, % ± SEM, 0.1% bovine casein and 1.0% human serum albumin, 37° C.) turned out to be 97.4%. Moreover, the half-maximal effective concentration (EC50) at hGIPR (hGIPR EC50, nM (SEM, n), 0.1% bovine casein and 1.0% human serum albumin, 37° C., geometric mean) is 0.531 nM; on hGIPR (hGIPR EC50, nM (SEM, n), cAMP, incubated at 37° C., 0.1% bovine casein (no human serum albumin), geometric mean), 0.0114 nM; on hGCGR (hGCGR EC50, nM (SEM, n), 0.1% bovine casein and 1.0% human serum albumin, 37° C., geometric mean), > 9950 nM; on hGCGR (hGCGR EC50, nM (SEM, n), cAMP, incubated at 37° C., 0.1% bovine casein (no human serum albumin), geometric mean), > 9950 nM; on hGLP-1R (hGLP-1R EC50, nM (SEM, n), 0.1% bovine casein and 1.0% human serum albumin, 37° C., geometric mean), 3.47 nM; on hGLP-1R (hGLP-1R EC50, nM (SEM, n), cAMP, incubated at 37° C., 0.1% bovine casein (no human serum albumin), geometric mean), 0.176 nM.

The record behind these values is patent US20230265151A1, “GIP/GLP1 CO-AGONIST COMPOUNDS” (priority 2020, published 2023).
